Assay: Anticancer human tumor 997537-175-T-J1-PDC patient-derived colon adenocarcinoma cell line growth inhibition [POLQ]
Settings: 997537-175-T-J1-PDC complex spheroid viability, combination with POLQ inhibitors; for IC50: curve of first compound; for viability, T/C: stronger effect = lower value
In short: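 PDC + HUVEC + MSC complex spheroids; POLQ inhibitors ± partner drugs; top conc. at/near clinical Cmax, else 10 microM (SN-38 1 microM), half-log dilutions; 37 degrees C, 5% CO2.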

[1] = second compound 0.0316 µM, first compound 0.0316 µM
[2] = second compound 0.0316 µM, first compound 0.1 µM
[3] = second compound 0.1 µM, first compound 0.0316 µM
[4] = second compound 0.1 µM, first compound 0.1 µM
[5] = second compound 0.316 µM, first compound 0.0316 µM
[6] = second compound 0.316 µM, first compound 0.1 µM
[7] = second compound 1 µM, first compound 0.0316 µM
[8] = second compound 1 µM, first compound 0.1 µM
[9] = second compound 3.16 µM, first compound 0.0316 µM
[10] = second compound 3.16 µM, first compound 0.1 µM
[11] = second compound 10 µM, first compound 0.0316 µM
[12] = second compound 10 µM, first compound 0.1 µM
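Also: luminescence signal used as a surrogate for viable cells; spheroids exposed to drugs for seven days before readout.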

CC[C@@]1(O)C(=O)OCc2c1cc1n(c2=O)Cc2cc3c(CN(C)C)c(O)ccc3nc2-1 + Nc1ccc(C#CCN(C(=O)Cc2ncc(C(F)(F)F)cc2C(F)(F)F)c2ccc(F)cc2)nn1
IC50 (second compound 0.0316 µM): > 100 nM
IC50 (second compound 0.1 µM): > 100 nM
IC50 (second compound 0.316 µM): 90.8 nM
IC50 (second compound 1 µM): > 100 nM
IC50 (second compound 3.16 µM): > 100 nM
IC50 (second compound 10 µM): > 100 nM
viability, T/C (second compound 0.0316 µM, first compound 0.000316 µM): 104%
viability, T/C (second compound 0.0316 µM, first compound 0.001 µM): 94.6%
viability, T/C (second compound 0.0316 µM, first compound 0.00316 µM): 104%
viability, T/C (second compound 0.0316 µM, first compound 0.01 µM): 111%
viability, T/C [1]: 94.7%
viability, T/C [2]: 66.3%
viability, T/C (second compound 0.1 µM, first compound 0.000316 µM): 101%
viability, T/C (second compound 0.1 µM, first compound 0.001 µM): 91%
viability, T/C (second compound 0.1 µM, first compound 0.00316 µM): 101%
viability, T/C (second compound 0.1 µM, first compound 0.01 µM): 103%
viability, T/C [3]: 83.2%
viability, T/C [4]: 58.3%
viability, T/C (second compound 0.316 µM, first compound 0.000316 µM): 104%
viability, T/C (second compound 0.316 µM, first compound 0.001 µM): 90.9%
viability, T/C (second compound 0.316 µM, first compound 0.00316 µM): 107%
viability, T/C (second compound 0.316 µM, first compound 0.01 µM): 101%
viability, T/C [5]: 77.3%
viability, T/C [6]: 47.5%
viability, T/C (second compound 1 µM, first compound 0.000316 µM): 93.3%
viability, T/C (second compound 1 µM, first compound 0.001 µM): 89.8%
viability, T/C (second compound 1 µM, first compound 0.00316 µM): 102%
viability, T/C (second compound 1 µM, first compound 0.01 µM): 101%
viability, T/C [7]: 83.9%
viability, T/C [8]: 57.2%
viability, T/C (second compound 3.16 µM, first compound 0.000316 µM): 95.7%
viability, T/C (second compound 3.16 µM, first compound 0.001 µM): 98.2%
viability, T/C (second compound 3.16 µM, first compound 0.00316 µM): 107%
viability, T/C (second compound 3.16 µM, first compound 0.01 µM): 100%
viability, T/C [9]: 79%
viability, T/C [10]: 60.6%
viability, T/C (second compound 10 µM, first compound 0.000316 µM): 96.7%
viability, T/C (second compound 10 µM, first compound 0.001 µM): 99.4%
viability, T/C (second compound 10 µM, first compound 0.00316 µM): 116%
viability, T/C (second compound 10 µM, first compound 0.01 µM): 107%
viability, T/C [11]: 81.3%
viability, T/C [12]: 58.5%

Nc1ccn(C2OC(CO)C(O)C2(F)F)c(=O)n1 (centres undefined) + Nc1ccc(C#CCN(C(=O)Cc2ncc(C(F)(F)F)cc2C(F)(F)F)c2ccc(F)cc2)nn1
IC50 (second compound 0.0316 µM): > 10000 nM
IC50 (second compound 0.1 µM): > 10000 nM
IC50 (second compound 0.316 µM): > 10000 nM
IC50 (second compound 1 µM): > 10000 nM
IC50 (second compound 3.16 µM): > 10000 nM
IC50 (second compound 10 µM): > 10000 nM
viability, T/C [1]: 92.5%
viability, T/C [2]: 100%
viability, T/C (second compound 0.0316 µM, first compound 0.316 µM): 87.8%
viability, T/C (second compound 0.0316 µM, first compound 1 µM): 89.5%
viability, T/C (second compound 0.0316 µM, first compound 3.16 µM): 80.7%
viability, T/C (second compound 0.0316 µM, first compound 10 µM): 72.5%
viability, T/C [3]: 109%
viability, T/C [4]: 108%
viability, T/C (second compound 0.1 µM, first compound 0.316 µM): 101%
viability, T/C (second compound 0.1 µM, first compound 1 µM): 68.2%
viability, T/C (second compound 0.1 µM, first compound 3.16 µM): 67.9%
viability, T/C (second compound 0.1 µM, first compound 10 µM): 47.3%
viability, T/C [5]: 97.9%
viability, T/C [6]: 102%
viability, T/C (second compound 0.316 µM, first compound 0.316 µM): 81.8%
viability, T/C (second compound 0.316 µM, first compound 1 µM): 92.9%
viability, T/C (second compound 0.316 µM, first compound 3.16 µM): 92%
viability, T/C (second compound 0.316 µM, first compound 10 µM): 66.2%
viability, T/C [7]: 102%
viability, T/C [8]: 99.6%
viability, T/C (second compound 1 µM, first compound 0.316 µM): 84%
viability, T/C (second compound 1 µM, first compound 1 µM): 74.4%
viability, T/C (second compound 1 µM, first compound 3.16 µM): 88.7%
viability, T/C (second compound 1 µM, first compound 10 µM): 77.5%
viability, T/C [9]: 100%
viability, T/C [10]: 105%
viability, T/C (second compound 3.16 µM, first compound 0.316 µM): 84.7%
viability, T/C (second compound 3.16 µM, first compound 1 µM): 83.8%
viability, T/C (second compound 3.16 µM, first compound 3.16 µM): 70.8%
viability, T/C (second compound 3.16 µM, first compound 10 µM): 84.5%
viability, T/C [11]: 102%
viability, T/C [12]: 113%
viability, T/C (second compound 10 µM, first compound 0.316 µM): 89%
viability, T/C (second compound 10 µM, first compound 1 µM): 94.1%
viability, T/C (second compound 10 µM, first compound 3.16 µM): 89.7%
viability, T/C (second compound 10 µM, first compound 10 µM): 74.2%

— PubChem BioAssay AID1963825 (Molecular Pharmacology Branch, DTP, NCI, 2024)
